By melting point is commonly meant the temperature, or range, at which the solid turns liquid.

This passage reports melting point results from a melting point compilation (Tetko et al.; mined from patent text by program, amines drawn as free bases though some values may be those of a salt).

Some results are limits rather than exact numbers.

`CCOC(=O)N1CCN(C2=Nc3ccccc3Oc3ccc(Cl)cc32)CC1`: the melting point stood at 122 °C.
Under `COc1ccc2c(c1)CCc1c(cccc1C(=O)O)S2` stands 185 to 187 °C; under `CNc1ccc2c(c1)N1CCCN=C1S2`, 184 °C.
As to `COC(=O)c1ccncc1OC`, the melting point was 132 to 135 °C.
Regarding `N#Cc1ccc(CCn2ccn(C3CCc4ccccc4C3)c2=S)cc1` (centres undefined), the melting point was 169 to 170 °C.
For the compound `Cc1cc(-c2nnc3cc(C(C)(C)C)c(OCc4cn(C)nn4)nn23)no1`, the melting point lay within 219 to 221 °C.
As for `Nc1cccc(-c2ccc(CCN3CCN(c4nnnn4-c4ccccc4)CC3)cc2)n1`, the melting point was 212 to 214 °C.
Compound `CCCCNc1nc(-c2cc(OC)c(OC)c(OC)c2)nc2sc(C#N)c(C)c12` yielded a melting point of 192 to 194 °C.
In turn, `CCCCN(C)C(N)=C(C#N)C#N` had a melting point of 160 to 161 °C.
Under `N#Cc1cnn(-c2ccc(Cl)c(Cl)c2Cl)c1NCCO` stands 197 to 199 °C; under `Cn1c(=O)c2c(nc3n2CC(O)CN3)n(C)c1=O` (centres undefined), 360 °C; under `CCOC(=O)[C@H]1O[C@@H]1C(=O)N[C@@H](COCC(C)C)CC(C)C`, 60 to 63 °C.
`O=C(CCl)c1ccc2cc(O)c(O)cc2c1` gave a melting point greater than 320 °C.
To `NC(=O)c1cc2c(SC3CCCCC3)cncc2s1` belongs 205 to 207 °C; to `CCOC(=O)CCc1nc2cccnc2n(-c2cccc(NC(=O)Nc3ccccc3OC)c2)c1=O`, 175 °C; to `COC[C@H]1CN(c2ccc(OCCC3(O)CCCCC3)cc2)C(=O)O1`, 87 °C.
As to `C=Cc1noc(C2=CCCN(C(=O)OC(C)(C)C)C2)n1`, the melting point was in the range of 81 to 82 °C.
For `CCN(CC)C(=O)c1ccc(C)c(-c2nc(N(C)CCCN(C)C)nc3c2CNC(=O)N3c2c(F)cccc2F)c1`, the melting point fell in the range of 106 to 108 °C.
Under `CC(C)n1nc(-c2cc(C#N)c(C(=O)O)nc2-c2ccccc2)ccc1=O` stands 196 to 198 °C; under `Cc1ccc2c(O)c(CS(C)(=O)=O)cnc2c1`, 285 to 290 °C.
Under `CC(C)OC(=O)CCC(=O)c1ccc(Cl)c(S(N)(=O)=O)c1` stands 128 to 130 °C.
To `CSc1nc(Cl)c(-c2c(F)cc(F)cc2F)c(NC(C)C)n1` belongs 112 to 116 °C.
Compound `CCN(CC)CCOC(=O)N1CCC(NC(=O)c2ccccc2)CC1` displayed a melting point of 78 to 82 °C.
As for `CC(Cc1c[nH]c2ccccc12)(NC(=O)OC1C2CC3CC(C2)CC1C3)C(=O)NCC(NC(=O)C1CC1C(=O)O)c1ccccc1` (centres undefined), the melting point fell in the range of 138 to 142 °C.
`OCCSc1cccc2nccn12` registered a melting point of 99 to 100 °C.
Compound `CC(CCN(C)c1ccc(Cl)cc1)NCC(O)c1ccc(O)c(C(N)=O)c1` (centres undefined) yielded a melting point of 127 to 129 °C.
Compound `O=C(O)C1=CSCCO1` had a melting point of 144 °C.
In the case of `CC(C)(C)OC(=O)N1CCN(c2ccc(NC=O)nc2)CC1`, the melting point lay in the range of 178 to 180 °C.
`O=C(SCCCN1C(=O)NCC1c1ccccc1)c1ccccc1` (centres undefined) yielded a melting point of 112 to 115 °C.
As for `CN(C)c1ncnc2[nH]c(-c3ccc(Cn4ccnc4)cc3)cc12`, the melting point lay within 273 to 275 °C.
Compound `CC12C=CC(=O)C=C1CCC1C2C(O)CC2(C)C1CC(OCCO)C2(O)C(=O)CO` (centres undefined) showed a melting point of 138 to 140 °C.
`CCOC(=O)Cc1c(C)n(Cc2cccc(O)c2)c2ccc(OC)cc12` gave a melting point of 114 to 116 °C.
As for `CSc1ccc(Cn2nc(-c3ccc(SC)cc3)c(-c3ccc(F)cc3)cc2=O)cc1`, the melting point worked out at 116 °C.
`O=c1oc(-c2cccc(-c3ccccc3)c2)cc(O)c1SCCc1ccccc1` came in with a melting point of 93 to 94 °C.
With `COC(=O)Cc1cccc(CNC(=O)C2Cc3ccccc3N2S(=O)(=O)c2ccc(-c3cccc(C(F)(F)F)c3)cc2)c1` (centres undefined), the melting point was determined as 60 °C.
Compound `CC1CCN(c2c(-c3c(F)cc(F)cc3F)c(Cl)nc3nc(S)nn23)CC1` showed a melting point of 194 °C.
For `COc1cccc(C=C2C(=O)c3ccccc3N2C(C)=O)c1[N+](=O)[O-]`, the melting point lay in the range of 161 to 162 °C.
As for `CC12C=CCC=C1CCC1C2C(O)CC2(C)C(CCO)=CCC12` (centres undefined), the melting point was in the range of 213 to 215 °C.
The compound `N#CCCNC(=O)c1cccc(-c2ccc3c(c2)N(c2ccc(Cl)c(Cl)c2)CC3)c1` returned a melting point of 166 to 196 °C.
To `O=C1CN(c2cccc(Oc3ccccc3)c2)NC(=O)N1` belongs 172 to 173 °C; to `COc1ccc(-c2cc(C(=O)NCc3ccccn3)c(=O)n(CC3CC3)n2)cc1`, 98.6 to 99.3 °C.
Compound `N#CCc1ccc(NC(=O)OCc2cccnc2)cc1` displayed a melting point of 157 to 162 °C.
In turn, `COC(=O)c1ccc2cc(C(C)n3ccnc3)ccc2c1` (centres undefined) yielded a melting point of 103 to 106 °C.
The compound `CN1C(=O)C2(COc3cc4c(cc32)OCCO4)c2c(Oc3ncccc3C(F)(F)F)cccc21` (centres undefined) displayed a melting point greater than 250 °C.
`O=C(O)CCCCCCCCCCc1ccc(Br)cc1` displayed a melting point of 91 °C.
`Cn1c2c(c3ccccc31)CC(OC(=O)c1ccccc1)CC2` (centres undefined) returned a melting point of 93 to 96 °C.
To `BrCCCCCCOc1ccc(C2c3ccc(OCc4ccccc4)cc3OCC2c2ccccc2)cc1` (centres undefined) belongs 96.2 to 96.7 °C.
For the compound `CC(C)(C)OC(=O)CCC1(C(=O)O)CCCC1`, the melting point fell in the range of 78 to 81 °C.
In turn, `CCOC(=O)c1c(OCC)cc(C=O)cc1OCC` came in with a melting point of 117 to 119 °C.
Under `CCNC(=O)c1ccc(OCC(O)c2ccc3c(c2)C(C)(C)CCC3(C)C)cc1O` (centres undefined) stands 65 to 70 °C.
As for `O=C(COc1ccc(C(=O)OCc2ccccc2)cc1)NN=C1C(=O)Nc2ccc(I)cc21`, the melting point was 221 °C.
Take `Cc1cc(Cn2nc(C(F)(F)F)cc2C(F)(F)F)ccc1NC(=O)c1cccc(Cl)c1C(=O)NC(C)(C)C(=O)O`: the melting point lay in the range of 179 to 184 °C.
Regarding `COc1ccc(-c2nc3n(c2-c2ccccn2)CCC3)cc1`, the melting point lay within 142 to 145 °C.
As for `COC(=O)c1c([N+](=O)[O-])cccc1S(=O)(=O)NC(C)(C)C`, the melting point was in the range of 89 to 91 °C.
`CC(CCCC(C)(O)CO)C1CCC2C3CC=C4CC(O)CCC4(C)C3CCC12C` (centres undefined): the melting point lay within 173 to 176 °C.
`CC(C)n1nc(-c2c(-c3ccccc3)nn3ccc(N4CCN(c5ccccn5)CC4)cc23)ccc1=O` yielded a melting point of 221 to 222 °C.
Under `Cc1cccc2[nH]c3c(c(C)nn3-c3ccccn3)c(=O)c12` stands 183 to 186 °C; under `CNc1nc(Cl)cc(NS(=O)(=O)c2cccc(C(F)(F)F)c2)n1`, 190 to 193 °C; under `Clc1ccc(Nc2nnc(Cc3ccncc3)c3c2CCCC3)cc1`, 258 to 261 °C.
With `COc1ccc(CCC(=O)O)cc1C(=O)NCc1cccnc1`, the melting point was 175 to 176 °C.
Turning to `COC(=O)COc1cccnc1`, the melting point was 174 °C.
Consider `CCCCSc1c2sc3ccccc3nc-2cc(C)c1=O`, for which the melting point amounted to 97 °C.
Consider `CC[C@H](C)COc1ccc(-n2cc(C(=O)O)cn2)cc1C#N`, for which the melting point was 184 to 186 °C.
For `COc1ccc(N(CCCCO)S(=O)(=O)c2c(F)c(F)c(F)c(F)c2F)cc1`, the melting point lay within 88 to 90 °C.
